Data: the supplement of paper PMC10307832

Key:
Assay in all cases: relative viability (nuclei count vs DMSO), 5 days (fraction); higher = more cells survive
[1] = compound: C1=CC2=C(C=C(C(=C2N=C1)O)N=NC3=CC4=C(C=C3)C=C(C=C4)S(=O)(=O)O)S(=O)(=O)O + Cc1nc(NC(=O)N2CCC[C@H]2C(N)=O)sc1-c1ccnc(C(C)(C)C(F)(F)F)c1 [Alpelisib] (partner 2 µM)
How it was run: (§1)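 After 5 days of treatment, lung cancer cells in 1536-well plates were fixed and stained in a single step (final 0.05% Triton X-100, 1% formaldehyde, 1 ug/ml Hoechst) and their nuclei counted on 4× images. Treatment had been applied by pin tool the day after seeding as one drug alone or as a fixed anchor-drug dose with five library-drug doses (not always all listed) in √10 steps. Relative viability is the nuclei count of treated wells divided by that of vehicle wells, and values are medians of duplicate plates.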

AT-7519 + Dasatinib = compound: O=C(NC1CCNCC1)c1n[nH]cc1NC(=O)c1c(Cl)cccc1Cl [AT-7519] + Cc1nc(Nc2ncc(C(=O)Nc3c(C)cccc3Cl)s2)cc(N2CCN(CCO)CC2)n1 [Dasatinib] (partner 0.075 µM)
How it was run: as §1

[2] = compound: C1=CC2=C(C=C(C(=C2N=C1)O)N=NC3=CC4=C(C=C3)C=C(C=C4)S(=O)(=O)O)S(=O)(=O)O + Nc1nc2[nH]cc(CCc3ccc(C(=O)N[C@@H](CCC(=O)O)C(=O)O)cc3)c2c(=O)[nH]1 [Pemetrexed] (partner 0.2 µM)
How it was run: as §1

[3] = compound: C1=CC2=C(C=C(C(=C2N=C1)O)N=NC3=CC4=C(C=C3)C=C(C=C4)S(=O)(=O)O)S(=O)(=O)O + O=C(c1cc(Cc2n[nH]c(=O)c3ccccc23)ccc1F)N1CCN(C(=O)C2CC2)CC1 [Olaparib] (partner 8 µM)
How it was run: as §1

UMC-11
relative viability ([1]; first compound 0.08 µM): 1.12 | relative viability ([1]; first compound 0.253 µM): 0.954 | relative viability ([1]; first compound 0.8 µM): 0.918 | relative viability ([1]; first compound 2.53 µM): 0.88 | relative viability ([1]; first compound 8 µM): 0.824 | relative viability (AT-7519 + Dasatinib; first compound 0.01 µM): 0.413 | relative viability (AT-7519 + Dasatinib; first compound 0.03162 µM): 0.482 | relative viability (AT-7519 + Dasatinib; first compound 0.3162 µM): 0.297 | relative viability (AT-7519 + Dasatinib; first compound 1 µM): 0.238 | relative viability ([2]; first compound 0.08 µM): 0.754 | relative viability ([2]; first compound 0.253 µM): 0.853 | relative viability ([2]; first compound 0.8 µM): 0.783 | relative viability ([2]; first compound 2.53 µM): 0.717 | relative viability ([2]; first compound 8 µM): 0.768 | relative viability ([3]; first compound 0.08 µM): 0.36 | relative viability ([3]; first compound 0.253 µM): 0.381 | relative viability ([3]; first compound 0.8 µM): 0.34 | relative viability ([3]; first compound 2.53 µM): 0.376 | relative viability ([3]; first compound 8 µM): 0.317
